Results on two molecules are retold here after article PMC12715762, “Discovery of VU6052254: A Novel, Potent M1 Positive Allosteric Modulator” (ACS Chemical Neuroscience, 2025).

The structures appear in SMILES notation.

The target in one series is T1, human M1 (Homo sapiens, UniProt P11229).
T1 sequence (P11229 1-460): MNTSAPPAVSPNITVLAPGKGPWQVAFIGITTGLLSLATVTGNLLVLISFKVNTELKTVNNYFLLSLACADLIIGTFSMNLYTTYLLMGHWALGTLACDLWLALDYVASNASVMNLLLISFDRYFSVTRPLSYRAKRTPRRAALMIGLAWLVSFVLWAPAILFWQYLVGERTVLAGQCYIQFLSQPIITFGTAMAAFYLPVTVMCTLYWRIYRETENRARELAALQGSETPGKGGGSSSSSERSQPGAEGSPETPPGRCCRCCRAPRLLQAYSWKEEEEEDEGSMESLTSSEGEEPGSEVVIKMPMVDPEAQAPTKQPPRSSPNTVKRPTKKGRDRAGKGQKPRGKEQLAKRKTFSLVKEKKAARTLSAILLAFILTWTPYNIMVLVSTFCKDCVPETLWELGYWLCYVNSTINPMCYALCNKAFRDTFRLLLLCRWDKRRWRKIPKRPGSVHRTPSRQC
Nature of the series: M1 agonist calcium mobilization assay (human). It is filed as cell-based. The settings on record: for hM1 Agonist AChmax (%): human M1, % ACh max, n = 9. The protocol:
Procedures for Biological Experiments
Calcium mobilization assays:
All functional cell-based assays were performed in stable Chinese Hamster Ovary (CHO) cell lines constitutively expressing human M5 or human M1 receptors. For full muscarinic selectivity, CHO cells expressing human M3, human M2 plus Gqi5 or human M4 plus Gqi5 were used. Cells were plated at 15,000 cells per 20 µL per well in black 384-well, TC-treated, clear-bottomed plates (Greiner) in Ham’s F12 medium supplemented with 10% FBS and 20 mM HEPES. Cells were incubated overnight at 37 °C under 5% CO2. The following day, the medium was removed and replaced with 1.2 µM Fluo-4 AM (Invitrogen) in assay buffer (Hank’s Balanced Salt Solution supplemented with 20 mM HEPES and 2.5 mM Probenecid, pH 7.4) and the cells were incubated for 50 minutes at 37 °C under 5% CO2. Dye was then removed and replaced with 20 µL of fresh assay buffer. Test compounds at a 10 mM concentration in DMSO were serially diluted in DMSO (either 1:3 or 1:5 dilution) to create a 10-point concentration series. The DMSO solutions were then diluted in assay buffer resulting in compound solutions at 2-times the final assay concentration with the highest assay concentration of 30 µM. The compound plate, cell plate, and plates containing EC20 and EC80 acetylcholine concentrations were placed in a Hamamatsu FDSS 6000 or 7000 kinetic imaging plate reader equipped to measure Ex480/Em540 fluorescence. Data were collected at 1 frame per second. After 2 seconds of collecting baseline fluorescence, 20 µL of the compound solutions were added to the cell plate. This was followed by the addition of an EC20 concentration of acetylcholine at 142 seconds. […] The fluorescence signal was collected for a total of 300 seconds. […] Data were imported and analyzed in Dotmatics Informatics software. by normalizing all data in the individual kinetic traces to the initial fluorescence read. The magnitude of each agonist addition was then determined and normalized to the average maximum response. […] The IC50 determined using the EC80 of acetylcholine is the value reported. […]

For another series, the target named is T2, MDCK-MDR1 (P-gp) (Homo sapiens, UniProt P08183).
T2 construct: host or cells: MDR1-MDCK cell monolayers
T2 sequence (P08183 whole entry): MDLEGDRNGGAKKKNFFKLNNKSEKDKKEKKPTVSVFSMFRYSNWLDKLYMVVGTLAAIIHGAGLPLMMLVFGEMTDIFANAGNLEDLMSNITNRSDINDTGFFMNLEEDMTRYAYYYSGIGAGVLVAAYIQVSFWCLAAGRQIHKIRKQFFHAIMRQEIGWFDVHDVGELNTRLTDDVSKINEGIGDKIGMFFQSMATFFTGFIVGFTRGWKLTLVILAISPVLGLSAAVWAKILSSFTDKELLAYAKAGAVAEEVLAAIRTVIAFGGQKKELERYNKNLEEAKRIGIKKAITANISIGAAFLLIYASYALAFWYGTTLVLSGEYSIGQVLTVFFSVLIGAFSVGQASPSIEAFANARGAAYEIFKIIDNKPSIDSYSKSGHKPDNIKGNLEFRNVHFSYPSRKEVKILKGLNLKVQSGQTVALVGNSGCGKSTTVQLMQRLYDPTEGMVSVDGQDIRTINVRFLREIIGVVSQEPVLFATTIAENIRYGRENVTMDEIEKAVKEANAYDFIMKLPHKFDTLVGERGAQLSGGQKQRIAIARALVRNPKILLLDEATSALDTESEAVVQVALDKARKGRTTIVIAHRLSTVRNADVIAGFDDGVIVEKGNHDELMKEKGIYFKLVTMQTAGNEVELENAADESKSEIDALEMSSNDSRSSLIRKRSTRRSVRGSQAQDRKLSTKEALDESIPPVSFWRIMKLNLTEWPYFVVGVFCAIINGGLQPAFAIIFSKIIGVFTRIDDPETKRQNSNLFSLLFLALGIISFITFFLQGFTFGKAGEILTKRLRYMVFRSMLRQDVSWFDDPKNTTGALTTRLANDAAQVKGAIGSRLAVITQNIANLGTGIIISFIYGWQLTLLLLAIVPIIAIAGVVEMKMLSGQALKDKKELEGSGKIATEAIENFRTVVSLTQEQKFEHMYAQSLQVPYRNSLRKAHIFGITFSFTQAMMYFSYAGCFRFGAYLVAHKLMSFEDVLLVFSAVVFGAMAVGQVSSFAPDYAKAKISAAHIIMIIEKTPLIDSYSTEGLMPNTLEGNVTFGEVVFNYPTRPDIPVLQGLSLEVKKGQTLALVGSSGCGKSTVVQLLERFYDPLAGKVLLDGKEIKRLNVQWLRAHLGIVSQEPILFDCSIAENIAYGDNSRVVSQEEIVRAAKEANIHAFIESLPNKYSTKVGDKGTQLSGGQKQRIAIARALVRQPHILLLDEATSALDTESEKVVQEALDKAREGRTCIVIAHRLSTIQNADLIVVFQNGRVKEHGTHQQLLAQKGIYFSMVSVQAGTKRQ
Nature of the series: MDCK-MDR1 permeability and efflux. It is filed as in vitro ADME. Set-up: Papp at 2 h / efflux ratio at 2 h: dose or concentration left out as unconfirmed. The settings on record: MDCK-MDR1. As for the experimental part: (§1) min, with an isocratic hold for 0.5 min, before transitioning to 10% B over 0.05 min. The column was re-equilibrated (1 min) before the next sample injection. The total run time was 2.55 min, and the HPLC flow rate was 0.5 ml/min. The source temperature was set at 500 °C, and mass spectral analyses were performed using a Turbo-Ion spray source in positive ionization mode (5.0-kV spray voltage) and using multiple-reaction monitoring of transitions specific for the analytes. All data were analyzed using AB Sciex Analyst 1.5.1 software. […]
(§2) In-vitro determination of blood-brain barrier penetration potential
(§3) Blood-brain barrier penetration was determined using MDR1-MDCK cell monolayers by Absorption Systems, following their protocol. In short, compounds were incubated at […] final concentration on one side of the cell monolayer for 2 hours. Compounds concentration on either side of the monolayer was determined by LC-MS/MS and apparent permeability and efflux ratio

Another series deals with T3, P-gp (MDR1) (Homo sapiens, UniProt P08183).
T3 construct: host or cells: MDR1-MDCK cell monolayers
T3 sequence (P08183 whole entry): as above
The series is described as follows: MDCK-MDR1 permeability and efflux. It is filed as in vitro ADME. On the set-up: Papp at 2 h / efflux ratio at 2 h: dose or concentration left out as unconfirmed. The settings on record: dog; for efflux ratio at 2 h: MDCK-MDR1 efflux ratio, read-out: P-gp ER. The protocol: as §1, §2, §3

The next series concerns the target CYP 2D6 (Homo sapiens, UniProt P10635). Nature of the series: CYP450 inhibition. It is filed as in vitro ADME.
The next series relates to CV ion channels. The series is described as follows: CV ion channel EP panel. The settings on record: result in words. The class given is cell-based.
Series [1] has as its system mouse native tissue layer V medial prefrontal cortex (mPFC). The series is described as follows: electrophysiology (fEPSP, LTD) in layer V medial prefrontal cortex. As to conditions: 10 μM. From the text:
Based on our previous experience, ,− , PAM 7 is expected to display robust pro-cognitive efficacy and maintain activity dependence of prefrontal cortical (PFC) function.

A further series in a line: GSH trapping. The class given is in vitro ADME. The settings on record: human microsomes; result in words.
A further series addresses T4, Adrenergic α2A (Homo sapiens, UniProt P08913).
T4 construct: purchased Eurofins (contract screen, Study TW04-0011004)
The series is described as follows: Eurofins radioligand binding.

In a further series the test system is Glutamate, NMDA, Agonism. The series is described as follows: Eurofins radioligand binding. The settings on record: Rat.
For series [2], the system named is Glutamate, NMDA, Phencyclidine. The series is described as follows: Eurofins radioligand binding. The settings on record: Rat.
The next series deals with Muscarinic M3 (Homo sapiens, UniProt P20309). The series is described as follows: Eurofins radioligand binding.
Chain of Muscarinic M3 (P20309 whole entry): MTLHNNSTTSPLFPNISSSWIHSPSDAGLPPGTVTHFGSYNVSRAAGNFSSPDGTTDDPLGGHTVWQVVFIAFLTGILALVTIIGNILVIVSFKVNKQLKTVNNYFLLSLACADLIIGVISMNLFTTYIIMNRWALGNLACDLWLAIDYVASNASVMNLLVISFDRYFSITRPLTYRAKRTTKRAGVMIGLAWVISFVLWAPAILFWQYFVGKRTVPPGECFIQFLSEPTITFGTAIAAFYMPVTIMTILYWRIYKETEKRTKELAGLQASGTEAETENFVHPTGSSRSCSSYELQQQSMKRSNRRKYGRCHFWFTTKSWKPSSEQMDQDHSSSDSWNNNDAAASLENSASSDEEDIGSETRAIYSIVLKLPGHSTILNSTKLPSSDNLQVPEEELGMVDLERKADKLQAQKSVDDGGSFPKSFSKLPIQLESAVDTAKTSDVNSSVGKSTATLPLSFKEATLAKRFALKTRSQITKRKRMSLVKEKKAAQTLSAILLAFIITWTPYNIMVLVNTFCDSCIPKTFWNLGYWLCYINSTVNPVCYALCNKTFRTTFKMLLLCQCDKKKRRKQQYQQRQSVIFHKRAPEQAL
For another series, the target named is Serotonin (5-HT1A) (Homo sapiens, UniProt P08908). Nature of the series: Eurofins radioligand binding.
Chain of Serotonin (5-HT1A) (P08908 whole entry): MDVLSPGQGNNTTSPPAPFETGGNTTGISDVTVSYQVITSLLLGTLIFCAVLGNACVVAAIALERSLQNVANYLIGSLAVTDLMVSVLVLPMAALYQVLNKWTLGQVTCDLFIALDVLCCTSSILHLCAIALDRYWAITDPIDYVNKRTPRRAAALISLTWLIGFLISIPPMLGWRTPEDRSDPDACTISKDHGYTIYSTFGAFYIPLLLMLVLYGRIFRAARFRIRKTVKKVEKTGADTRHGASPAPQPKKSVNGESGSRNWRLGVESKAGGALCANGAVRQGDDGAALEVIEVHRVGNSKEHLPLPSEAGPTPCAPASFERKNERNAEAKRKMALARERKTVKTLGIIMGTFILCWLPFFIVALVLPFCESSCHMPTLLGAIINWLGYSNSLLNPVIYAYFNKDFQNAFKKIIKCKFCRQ

T4 sequence (P08913 whole entry): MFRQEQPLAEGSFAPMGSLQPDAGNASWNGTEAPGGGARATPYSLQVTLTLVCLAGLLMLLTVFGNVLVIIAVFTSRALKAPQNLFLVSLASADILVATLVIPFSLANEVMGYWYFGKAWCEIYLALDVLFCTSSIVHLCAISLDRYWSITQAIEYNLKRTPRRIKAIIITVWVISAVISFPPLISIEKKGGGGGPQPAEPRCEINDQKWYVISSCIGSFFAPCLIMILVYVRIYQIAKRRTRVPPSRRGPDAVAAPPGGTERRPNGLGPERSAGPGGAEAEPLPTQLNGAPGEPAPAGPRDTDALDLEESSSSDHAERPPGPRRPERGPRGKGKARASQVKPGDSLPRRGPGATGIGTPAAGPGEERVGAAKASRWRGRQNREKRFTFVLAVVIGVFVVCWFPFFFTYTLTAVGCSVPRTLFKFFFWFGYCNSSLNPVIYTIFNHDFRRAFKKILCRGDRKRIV
Chain of CYP 2D6 (P10635 whole entry): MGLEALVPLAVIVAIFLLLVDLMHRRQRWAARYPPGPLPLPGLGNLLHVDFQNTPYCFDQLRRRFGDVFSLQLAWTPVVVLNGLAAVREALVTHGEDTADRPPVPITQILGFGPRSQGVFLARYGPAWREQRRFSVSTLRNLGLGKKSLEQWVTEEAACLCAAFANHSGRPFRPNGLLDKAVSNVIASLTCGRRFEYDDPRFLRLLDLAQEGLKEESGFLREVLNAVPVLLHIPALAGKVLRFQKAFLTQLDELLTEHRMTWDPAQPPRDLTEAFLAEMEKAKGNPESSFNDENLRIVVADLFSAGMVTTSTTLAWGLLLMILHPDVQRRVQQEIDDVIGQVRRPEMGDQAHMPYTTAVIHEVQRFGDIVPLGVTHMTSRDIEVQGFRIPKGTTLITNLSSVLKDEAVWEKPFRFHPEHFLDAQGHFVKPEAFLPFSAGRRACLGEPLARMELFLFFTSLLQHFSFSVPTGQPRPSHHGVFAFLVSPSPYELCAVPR

`Cn1cc2c(-c3cc(F)c(CN4Cc5ncccc5C4=O)c(F)c3)cccc2n1` [compound 1, reference compound]: on human M1, the “hM1 Agonist AChmax (%)” value came out at 20%. Moreover, the Papp on MDCK-MDR1 (P-gp) came out at 31 ×10⁻⁶ cm/s. At P-gp (MDR1), the efflux ratio at 2 h was found to be 1.6.

Take `Cn1cc2c(-c3cc(F)c(CN4Cc5ncccc5C4=O)c(F)c3)ccc(C(C)(C)O)c2n1` [compound 7]: the “hM1 Agonist AChmax (%)” value at human M1 stood at 22%. Besides, the EC50 on human M1 (human M1, n = 9, read-out: hM1 Agonist EC50) was determined as 3.64 µM. In addition, the values for the IC50 against CYP 2D6 and on Adrenergic α2A were over 30 µM and 3.2 µM, respectively. For the same molecule, at MDCK-MDR1 (P-gp), the Papp amounted to 23.1 ×10⁻⁶ cm/s. The Papp at 2 h on P-gp (MDR1) (MDCK-MDR1, MDCK-MDR1) was 23 ×10⁻⁶ cm/s. Besides, on P-gp (MDR1), the efflux ratio at 2 h stood at 1.97. In addition, the “activity in CV ion channel EP panel” value in the series on CV ion channels is “no significant activities”. Moreover, in [1], the PPR is on record as 112%. The “field excitatory postsynaptic potentials (fEPSPs), % baseline” value in series [1] is 86 % baseline. Besides, the GSH trapping result in “GSH trapping” is “no evidence of GSH trapping”. The inhibition at 10 µM on Adrenergic α2A (Adrenergic α2A, Human) stood at 75%; at Muscarinic M3, 7%; on Serotonin (5-HT1A), 12%. Besides, the “% Inhibition at 10 µM” value is recorded as -3% in the series on Glutamate, NMDA, Agonism and -1% in series [2].

What is called Papp is the rate of passage across a membrane or cell layer, normalised by area and donor concentration. The term EC50 denotes the concentration that produces a half-maximal response. As usually defined, the IC50 is the concentration at which inhibition is half-maximal. Usually inhibition stands for the relative decrease from the control value, in per cent. One may read the % Inhibition as the change of the read-out against control, counted positive when it falls.
